Measured values: patent US5440031A, “1,4,10,13-tetraoxa-7,16-diazacyclooctadecane derivatives, pharmaceutical compositions containing them and their use for the removal of toxic metal ions and radioactive isotopes from living organism” (priority 1990, dated 1995)
Structures can show the parent of a compound that is named as a salt.

Tests used:
[1] = acute toxicity, LD50/30, injection into blood circulation, 30 days observation; type: in vivo, Swiss mice and Wistar rats; details: in vivo, iv; dose causing death of 50% of animals within 30 days; slow injection into the blood circulation during 3 to 5 minutes; mice and rats; probit analysis
Description: (§1) The acute toxicity values of the products prepared according to Examples 1 to 16 were determined on laboratory mice and rats in the following manner.
(§2) Solutions containing the compounds in various concentrations were prepared by using physiological saline solution or glucose solution of 5% by weight concentration and the active agents were administered in various concentrations into the blood circulation of the animals by injecting them slowly during 3 to 5 minutes. Groups consisting of 6 to 10 animals (Swiss mice and Wistar rats of both sexes) each were used for the various dose levels. […] The LD50/30 value (i.e. the dose causing the death of 50% of the experimental animals within 30 days) was determined from the number of animals died during this period by using probit analysis/D. J. Finney: Probit Analysis (2nd ed.) Cambridge University Press (1952)/. These values expressed in mmol/kg of body-weight for the active agents according to the invention are summarized in column (B) of Table 1.

[2] = radioactive isotope elimination-increasing effect, isotope into abdominal cavity, whole-body retention; type: in vivo, Swiss mice; details: for EI value: effectivity (isotope elimination as % related to control) multiplied by LD50/30, 0-5 weak, 5-50 medium, 50-100 good, above 100 excellent; for F factor: multiplication of isotope elimination relative to untreated animals, i.v. 50 to 100 μmol/kg, 30 to 60 minutes after isotope; for radioactivity excreted from the animal organism within 1 day / radioactivity excreted from the animal organism within 4 days / radioactivity excreted from the animal organism within 7 days: Sr-85 into abdominal cavity, single treatment, 100 μmol/kg (stated for Example 13); for radioactivity excreted from the animal organism within 1 day: control 15%; for radioactivity excreted from the animal organism within 4 days: control 25%; for radioactivity excreted from the animal organism within 7 days: control 30%
Description: The action of the compounds of formula (I) according to the invention, which manifests itself as an increase in the elimination of metal ions damaging the living organism, was investigated by using radioactive strontium or cerium ions on Swiss mice and Wistar rats of both sexes.
The elimination was studied on radioactive isotopes introduced in various routes to various sites, e.g. to the blood circulation, abdominal cavity, lungs, muscles or subcutaneous connective tissue of the experimental animals. The compound increasing the elimination of the isotopes was administered daily once or two times in the form of an injection, powder or liquid aerosol or plaster to the organism of the experimental animals. Thereafter, whole body activity measurements were performed and retention curves were taken up which then were compared to the results obtained in the control group.
The retention curves obtained were analysed on a computer. "Nonlinear Regression by the Code of BMDP-3R" (BMDP Statistical Software Manual, UCLA, Los Angeles, 1990, Chief Ed. W. J. Dixon) computer software was used for this purpose. It could be stated from the results obtained that the curves could be described by a two-component descending exponential function. Two data were calculated for characterizing the effectivity. One of these was the so-called F factor indicating the increase in the elimination in relation to the control and meaning the multiplication of the isotope elimination under effect of the test compound in relation to the untreated animals/see column (C) in Table 1/.
For the illustrative comparison of the compounds according to the invention additional characteristic data, the so-called EI values are given which were obtained by multiplying the extent of isotope elimination as percentage related to the control group (effectivity, E) with the acute toxicity value (LD50/30, innocuous, I)/see column (D) in Table 1/. Although the EI value is numerically not identical to the therapeutic ratio (safety index), it indicates in all cases to a weak or excellent activity of a product.
The radioactive isotope elimination-increasing effects of compounds prepared according to Examples 1 to 16 were compared on Swiss mice as described hereinafter.
An activity of 37 to 74 kBg (1 to 2 μCi) of radioactive strontium (Sr-85Cl2) or radioactive cerium (Ce-144Cl3), respectively, was administered into the abdominal cavity of the animals which were then divided into treatment groups consisting of 5 to 10 animals each. At 30 to 60 minutes after administration of the isotope, the animals of the treated groups were intravenously (i.v.) given the active agent used in an amount to achieve s concentration of 50 to 100 μmol/kg of body-weight in the animal organism for each treatment. The animals of the control groups were similarly treated with the carrier (sterile physiological saline or glucose solution of 5% by weight concentration) without active agent.
The amount of radioactivity introduced to the animal organism was determined immediately after administration of the isotope, thru these measurements were repeated daily or in every two the or three days in a device constructed for the purpose of the whole-body measurements on small animals. The counts observed were related to the starting activity value of the zero (0) day and a so-called retention/time correlation was obtained by considering the activity retained in the organism. The change of activity of the animal organism in the time is illustrated in FIG. 1 where the time (in days) elapsed after the treatment is shown on the abscissa and the whole-body retention as percentage is plotted on the ordinate. It can be seen that the rate of elimination of Sr-85 administered into the abdominal cavity of control animals was slow: within 1 day only 15%, within 4 days 25% and within 7 days 30% of the activity were eliminated from their organism and the elimination was even more delayed in the later period. […]

[3] = tested on: laboratory mice and rats; assay: acute toxicity, LD50/30, injection into blood circulation, 30 days observation; type: in vivo, Swiss mice and Wistar rats; details: dose causing death of 50% of animals within 30 days, slow injection into the blood circulation during 3 to 5 minutes, mice and rats, probit analysis
Description: as §1, §2

Compound	LD50 at 720 h [1]	EI value [2]	F factor [2]	Acute toxicity LD50/30 ([3]; 43200 min)	Acute toxicity LD50/30 [3]	radioactivity excreted from the animal organism within 1 day [2]	radioactivity excreted from the animal organism within 4 days [2]	radioactivity excreted from the animal organism within 7 days [2]
O=C([O-])C(C(=O)[O-])N1CCOCCOCCN(C(C(=O)[O-])C(=O)[O-])CCOCCOCC1.[Na+].[Na+].[Na+].[Na+] [1/a, N,N'-bis(dicarboxymethyl)-1,4,10,13-tetraoxa-7,16-diazacyclooctadecane tetrasodium salt]	327 µmol/kg	5.40	1.8					
O=C([O-])C(C(=O)[O-])N1CCOCCOCCN(C(C(=O)[O-])C(=O)[O-])CCOCCOCC1.[Na+].[Na+].[Na+].[Na+] [1/b, N,N'-bis(dicarboxymethyl)-1,4,10,13-tetraoxa-7,16-diazacyclooctadecane tetrasodium salt]		9.66	2.8	0.379 mmol/kg				
O=C([O-])C(C(=O)[O-])N1CCOCCOCCN(C(C(=O)[O-])C(=O)[O-])CCOCCOCC1.[K+].[K+].[K+].[K+] [3/a, N,N'-bis(dicarboxymethyl)-1,4,10,13-tetraoxa-7,16-diazacyclooctadecane tetrapotassium salt]	333 µmol/kg	12.30	2.3					
O=C([O-])C(C(=O)[O-])N1CCOCCOCCN(C(C(=O)[O-])C(=O)[O-])CCOCCOCC1.[K+].[K+].[K+].[K+] [3/b, N,N'-bis(dicarboxymethyl)-1,4,10,13-tetraoxa-7,16-diazacyclooctadecane tetrapotassium salt]		8.90	1.7	0.272 mmol/kg				
O=C(O)C(C(=O)O)N1CCOCCOCCN(C(C(=O)O)C(=O)O)CCOCCOCC1 [Example 2, N,N'-bis(dicarboxymethyl)-1,4,10,13-tetraoxa-7,16-diazacyclooctadecane tetrasodium salt containing disodium hydroxy malonate]	368 µmol/kg	11.10	3.3					
O=C([O-])C(C(=O)[O-])N1CCOCCOCCN(C(C(=O)[O-])C(=O)[O-])CCOCCOCC1.[Mg+2].[Na+].[Na+] [Example 4, N,N'-bis(dicarboxymethyl)-1,4,10,13-tetraoxa-7,16-diazacyclooctadecane magnesium complex disodium salt]		7.30	2.3		0.211 mmol/kg			
N.N.O=C([O-])C(C(=O)[O-])N1CCOCCOCCN(C(C(=O)O)C(=O)O)CCOCCOCC1.[Ca+2] [Example 7, N,N'-bis(dicarboxymethyl)-1,4,10,13-tetraoxa-7,16-diazacyclooctadecane calcium complex diammonium]		65.00	1.7		above 2.5 mmol/kg			
O=C([O-])C(C(=O)[O-])N1CCOCCOCCN(C(C(=O)[O-])C(=O)[O-])CCOCCOCC1.[Ca+2].[Ca+2] [Example 8, N,N'-bis(dicarboxymethyl)-1,4,10,13-tetraoxa-7,16-diazacyclooctadecane calcium complex calcium salt]		58.00	1.6		above 1.5 mmol/kg			
O=C([O-])C(C(=O)[O-])N1CCOCCOCCN(C(C(=O)[O-])C(=O)[O-])CCOCCOCC1.[Na+].[Na+].[Zn+2] [Example 10, N,N'-bis(dicarboxymethyl)-1,4,10,13-tetraoxa-7,16-diazacyclooctadecane zinc complex disodium salt]		3.20	2.3		0.091 mmol/kg			
O=C([O-])C(C(=O)[O-])N1CCOCCOCCN(C(C(=O)[O-])C(=O)O)CCOCCOCC1.[Na+].[Na+].[Na+] [Example 11, N,N'-bis(dicarboxymethyl)-1,4,10,13-tetraoxa-7,16-diazacyclooctadecane trisodium salt]	111 µmol/kg	2.90	2.6					
CC(C(=O)[O-])(C(=O)[O-])N1CCOCCOCCN(C(C(=O)[O-])C(=O)[O-])CCOCCOCC1.[Na+].[Na+].[Na+].[Na+] [Example 12, N-dicarboxymethyl-N'-(1,1'-dicarboxyethyl)-1,4,10,13-tetraoxa-7,16-diazacyclooctadecane tetrasodium salt]	305 µmol/kg	7.90	1.5					
CCC(C(=O)O)(C(=O)O)N1CCOCCOCCN(C(C(=O)O)C(=O)O)CCOCCOCC1 [Example 13, N-dicarboxymethyl-N'-(1,1'-dicarboxypropyl)-1,4,10,13-tetraoxa-7,16-diazacyclooctadecane tetrasodium salt sodium bromide double salt]	302 µmol/kg	13.30	2.1			40%	65%	67%
CC(C(=O)O)(C(=O)O)N1CCOCCOCCN(C(C)(C(=O)O)C(=O)O)CCOCCOCC1 [Example 15, N,N'-bis(1,1'-dicarboxyethyl)-1,4,10,13-tetraoxa-7,16-diazacyclooctadecanetetrasodium salt]	450 µmol/kg	6.80	1.3					
O=C(O)C(Cc1ccccc1)(C(=O)O)N1CCOCCOCCN(C(Cc2ccccc2)(C(=O)O)C(=O)O)CCOCCOCC1 [Example 16, N,N'-bis(benzyl-dicarboxymethyl)-1,4,10,13-tetraoxa-7,16-diazacyclooctadecane tetrasodium salt sodium bromide double salt]	470 µmol/kg	7.10	1.3					
N,N'-bis(dicarboxymethyl)-1,4,10,13-tetraoxa-7,16-diazacyclooctadecane calcium complex disodium salt containing disodium hydroxymalonate and sodium chloride [6/a]		158.00	3.9		above 3.0 mmol/kg			
N,N'-bis(dicarboxymethyl)-1,4,10,13-tetraoxa-7,16-diazacyclooctadecane iron(II) complex disodium salt [Example 9]		8.25	1.7		0.250 mmol/kg			
N,N'-bis(dicarboxymethyl)-1,4,10,13-tetraoxa-7,16-diazacyclooctadeoane calcium complex disodium salt containing sodium chloride [Example 5]		145.00	3.7		above 2.5 mmol/kg	81%	84%	85%
